Assay results as given in patent US9725490B2, “ERAP1-derived peptide and use thereof” (TOKUSHIMA UNIVERSITY, priority 2011, dated 2017).
Entries after “also recorded” stand apart in the source; their conditions may differ.

Assays:
Assay type in all cases: cell-based, human
[1] = test system: transcriptional activity of ERE-ERα; assay: ERE-luciferase reporter assay in KPL-3C cells; conditions: 10 nM E2 24 hours
Experimental: KPL-3C cells temporarily transfected with an ERE-luciferase reporter vector were treated with the ERAP1-peptide in the concentrations shown in the figure. Then, immediately, the cells were stimulated with 10 nM E2 for 24 hours. TAM indicates the tamoxifen treatment. […] KPL-3C cells were treated for 24 hours with the ERAP1-peptide and/or E2. Then, the nuclear fraction was immunoprecipitated with anti-ERα antibody or an anti-PHB2 antibody.

SK-BR-3 cells = assay: Proliferation of ERα negative SK-BR-3 cells; conditions: 24 hours and 48 hours
Experimental: FIG. 40 is a diagram illustrating the results of MTT assay by which proliferation suppression effect of the ERAP1-peptide in ERα negative breast cancer cell lines, SK-BR-3 cells was evaluated. SK-BR-3 cells were treated with the ERAP1-peptide (Peptide) or the ERAP1-scramble peptide (scrPeptide) for 24 hours or for 48 hours.
Cell proliferation assay was performed using Cell-Counting Kit-8 (CCK-8, Dojindo, Kumaamoto, Japan). The cells were harvested, and plated in 2×10^4 cells/well on a 48-well plate, and maintained in a humidified incubator (37° C.). 10 fold-diluted CCK-8 solution was added at indicated time points and the cells were incubated for 1 hour. Then, the absorbance at 450 nm was measured and the number of living cells was calculated.

ERα = ERα down-regulation and polyubiquitination in KPL-3C cells; conditions: in the presence of MG132
Experimental: FIG. 5 is a diagram illustrating the results of immunoblotting analysis by which the effects of the ERAP1-peptide in the down-regulation by polyubiquitination of ERα and proteasome decomposition were evaluated. The upper panel and the lower panel show the results obtained by the procedures described below. Namely, KPL-3C cells were treated with the ERAP1-peptide and/or 10 nM E2 for 1 hour. Then, the protein level and the mRNA level of ERα were examined by Western blotting and semi-quantitative RT-PCR. The results thereof are shown in the upper panel. β-actin is a loading control. Then KPL-3C cells were treated with the ERAP1-peptide and/or E2 in the presence of 1 μM MG-132 for 1 hour. Then, the cell lysate was immunoprecipitated with anti-ERα antibody. The results thereof are shown in the lower panel.

MCF-7 cells = assay: Cell cycle FACS analysis, MCF-7; conditions: 10 μM ERAP1-peptide and/or 10 nM tamoxifen, 10 nM E2 24 hours
Experimental: FIG. 6-2 is a diagram illustrating that ERAP1-peptide treatment suppresses ERα-dependent cell proliferation of breast cancer cell lines. […] MCF-7 cells were treated with 10 μM ERAP1-peptide or 10 μM tamoxifen. Then, immediately, the cells were stimulated with 10 nM E2 for 24 hours. After the immobilization, the cells were stained with propidium iodide, and analyzed by flow cytometry.
FIG. 19 is a diagram illustrating the results of FACS analysis showing the effects of concomitant use of the ERAP1-peptide and tamoxifen on the cell cycle.
The cells were fixed with cold 70% ethanol, and stained with 20 μg/ml propidium iodide (Sigma) and 1 mg/ml ribonuclease A (Sigma), and analyzed with FACSCalibur (B D, Franklin Lakes, N.J., USA). The cell cycle was evaluated using CellQuest software (BD).
MCF-7 cells were treated with 10 μM ERAP1-peptide and/or 10 nM tamoxifen. Then, immediately, the cells were stimulated with 10 nM E2 for 24 hours. After the immobilization, the cells were stained with propidium iodide, and analyzed by flow cytometry.

HDAC1 = assay: Deacetylation (HDAC) assay of anti-PHB2 immunoprecipitate; conditions: MCF-7, 24 hours
Experimental: FIG. 4-4 is a diagram illustrating that the ERAP1-peptide promotes nuclear translocation of PHB2. […] MCF-7 cells were treated with the ERAP1-peptide and/or 10 nM E2 for 24 hours. Then, the nuclear fraction was immunoprecipitated with anti-ERα antibody or an anti-PHB2 antibody. […] MCF-7 cells were treated with the ERAP1-peptide and/or E2 for 24 hours. Then, the cell lysate was immunoprecipitated with anti-PHB2 antibody. Subsequently, the HDAC activity in the immunoprecipitate was measured with a commercially available kit. The nuclear extract from the HeLa cells and PBS were used as a positive control (P) and as negative control (N), respectively.
HDAC assay was performed using HDAC Fluorescent Activity Assay/Drug Discovery Kit (Enzo Life Sciences, Plymouth Meeting, Pa., USA) in accordance with the instruction of the manufacturer. MCF-7 cells were treated with E2 and/or the ERAP1 peptide(s) for 24 hours in a 6-well plate. Then, the cell extract was immunoprecipitated with anti-PHB2 antibody. Furthermore, the immunoprecipitated cell extract was incubated for 30 minutes in the presence of a substrate at 30° C. After the incubation, the reaction was stopped, and the fluorescence was analyzed with a microplate fluorometer (Infinite M200, Tecan, Mannedorf, Switzerland).

ERα phosphorylation = assay: E2-induced ERα phosphorylation, Western blotting, KPL-3C and BT-474; conditions: KPL-3C and BT-474 cells
Experimental: FIG. 9-2 is a diagram illustrating that ERAP1-peptide treatment suppresses the non-genomic activation route. […] The cells (C and D) or BT474 cells (E) Were treated with the ERAP1-peptide. Then, the phosphorylation levels of Akt (C). MAPK (C) and ERα (D and E) were evaluated with Western blotting. The relative phosphorylation levels were quantified by densitometry analysis, and the ratio to the value at 0 hour for non-treated cells was calculated.

[2] = test system: ERα binding to Her2, EGFR, IGF1-Rβ, PI3K; AKt and MAPK routes; assay: Non-genomic activation route, immunoblotting, BT474
Experimental: FIG. 10-2 is a diagram illustrating that the ERAP1-peptide regulates E2-induced non-genomic activation route via IGF-1Rβ and Shc. […] BT-474 cells were treated with the ERAP1-peptide and/or E2 for 24 hours. Then, the cytoplasm fraction was immunoprecipitated with anti-ERα antibody.
FIG. 10-3 is a diagram illustrating that the ERAP1-peptide regulates E2-induced non-genomic activation route via IGF-1Rβ and Shc. […] BT-474 cells were treated with the ERAP1-peptide. Then, the phosphorylation levels of Akt and MAPK were evaluated by Western blotting. […] MCF-7 cells were treated with the ERAP1-peptide or the ERAP1-scramble peptide. The relative phosphorylation levels were quantified by densitometry analysis, and the ratio to the value at 0 hour in the untreated cells was calculated.

Question: For `CSCC[C@H](NC(=O)[C@H](CCC(N)=O)NC(=O)[C@H](CCCNC(=N)N)NC(=O)[C@H](CCCNC(=N)N)NC(=O)[C@H](CCCNC(=N)N)NC(=O)[C@H](CCCNC(=N)N)NC(=O)[C@H](CCCNC(=N)N)NC(=O)[C@H](CCCNC(=N)N)NC(=O)[C@H](CCCNC(=N)N)NC(=O)[C@H](CCCNC(=N)N)NC(=O)[C@H](CCCNC(=N)N)NC(=O)[C@H](CCCNC(=N)N)NC(=O)[C@@H](N)CCCNC(=N)N)C(=O)N[C@@H](CC(C)C)C(=O)N[C@@H](CO)C(=O)N[C@@H](CC(=O)O)C(=O)N[C@@H](CC(C)C)C(=O)N[C@H](C(=O)N[C@@H](CC(C)C)C(=O)N[C@@H](CCC(N)=O)C(=O)N[C@@H](CC(C)C)C(=O)N[C@@H](CCCNC(=N)N)C(=O)N[C@@H](CCC(N)=O)C(=O)N[C@@H](CCCNC(=N)N)C(=O)O)[C@@H](C)O` [ERAP1-peptide], which “transcriptional activity of ERE-ERα” value [1] is on record?
Answer: The value was “suppression for the transcriptional activity of ERE-ERα was recognized”.

Question: And the cell proliferation (SK-BR-3 cells)?
Answer: Its cell proliferation is “had suppression effect on the cell proliferation in dose-dependent manner both at 24 hours and 48 hours”.

Question: What about the “protein decrease and polyubiquitination of ERα” value (ERα) of the same compound?
Answer: The value was “suppression for protein decrease of ERα was similarly recognized with inhibition of polyubiquitination”.

Question: And the cell cycle (MCF-7 cells)?
Answer: The cell cycle was “induced stop of the G1 phase; also recorded: increase of cells having stopped in the G1 phase”.

Question: What about the “activity of HDAC1” value (HDAC1) of the same compound?
Answer: Its value is “accelerated dose-dependently”.

Question: And the “E2-dependent phosphorylation of ERα sites” value (ERα phosphorylation)?
Answer: The value was “E2-dependent phosphorylation in all of the sites was suppressed”.

Question: What about the “bindings of ERα to Her2, EGFR, IGF1-Rβ and PI3K” value [2] of the same compound?
Answer: Its value is “all of the bindings of ERα to Her2, EGFR, IGF1-Rβ and PI3K were inhibited”.
